From the OligoGym collection come the findings set out here.

After the bases stand the sugars from the 5' end (letter, count) and the backbone: PS all phosphorothioate, else s phosphorothioate and o phosphodiester by linkage. Methylation of C is not given here. l = locked nucleic acid (LNA); d = 2'-deoxy (DNA)

This data set addresses SNHG14. The conditions noted are these: ASO.
[1] abbreviates: Mouse Primary Neuronal Cell, 0.005 µM.

For the sequence CTAAATAGATTCCACT (sugars l2 d10 l4, PS), the target mRNA inhibition (Human Neuronal Cell, 0.2 µM) worked out at 26% and the target mRNA inhibition (Human Neuronal Cell, 1 µM) stood at 52%. For CTAAGCTCCATATTTA (sugars l4 d10 l2, PS), in that order: 21% and 42%. Taken in the same sequence, the figures for “CTACACATCTTGTATAC (sugars l3 d11 l3, PS)” were 40% and 52%.

As for CTATTCCAGTTTAAAT (sugars l4 d10 l2, PS), the target mRNA inhibition turned out to be 33% (Human Neuronal Cell, 0.2 µM) and 44% (Human Neuronal Cell, 1 µM). Regarding CTCAGACATCTCAATA (sugars l4 d10 l2, PS), the target mRNA inhibition (Human Neuronal Cell, 0.2 µM) amounted to 45% and the target mRNA inhibition (Human Neuronal Cell, 1 µM) was 43%. Take “CTGTATACACCATCCCA (sugars l1 d2 l2 d10 l2, PS)”: the target mRNA inhibition (Human Neuronal Cell, 7.5 µM) came out at 61%. The same measure, in the same setting: as for “CTGTATACACCATCCCA (sugars l1 d12 l1 d1 l2, PS)”, the figure is 58%. As to “CTGTATACACCATCCCA (sugars l1 d14 l2, PS)”, the target mRNA inhibition (Human Neuronal Cell, 7.5 µM) is 49%. Same read-out and setting: as for “CTGTATACACCATCCCA (sugars l2 d2 l1 d10 l2, PS)”, the figure is 60%; as for “CTGTATACACCATCCCA (sugars lddddddddddldldll, PS)”, 49%; as for “CTGTATACACCATCCCA (sugars ldddlddddddldddll, PS)”, 29%. Same read-out and setting: the result for “CTGTATACACCATCCCA (sugars lddldddddddddldll, PS)” reads 49%.

With “CTGTATACACCATCCCA (sugars lddldddddddldddll, PS)”, where the note is “Human Neuronal Cell, 7.5 µM”, the target mRNA inhibition came to 55%. Still for that read-out and setting: the result for “CTGTATACACCATCCCA (sugars ldlddddddddldddll, PS)” reads 52%; that for “CTGTTTATACCCTTTCCA (sugars l1 d15 l2, PS)”, 47%. Regarding “CTGTTTATACCCTTTCCA (sugars ldlddddddddddlddll, PS)”, the target mRNA inhibition (Human Neuronal Cell, 7.5 µM) was 55%. Still for that read-out and setting: as for “CTGTTTATACCCTTTCCA (sugars ldldldddddddddddll, PS)”, the figure is 56%.

Take “CTTACCAATAGTTACCT (sugars l3 d11 l3, PS)”: the target mRNA inhibition worked out at 49% (Human Neuronal Cell, 0.2 µM) and 54% (Human Neuronal Cell, 1 µM). Consider CTTCCCTTTGATAACA (sugars l4 d10 l2, PS), for which the target mRNA inhibition (Human Neuronal Cell, 0.2 µM) amounted to 12% and the target mRNA inhibition (Human Neuronal Cell, 1 µM) was found to be 32%. Consider “CTTCTTGTTTATCCCAA (sugars l2 d11 l4, PS)”, for which the target mRNA inhibition by setting is: (Human Neuronal Cell, 0.2 µM) 57%; (Human Neuronal Cell, 1 µM) 68%. Taken in the same sequence, the figures for “CTTGCATTTCTAATTAC (sugars l3 d11 l3, PS)” were 38% and 35%. With “CTTGTCAAATCATTTCT (sugars l4 d11 l2, PS)”, the target mRNA inhibition was 47% (Human Neuronal Cell, 0.2 µM) and 41% (Human Neuronal Cell, 1 µM).

Turning to CTTTCCAATGAATCTA (sugars l2 d10 l4, PS), the target mRNA inhibition is, setting by setting: (Human Neuronal Cell, 0.2 µM) 39%; (Human Neuronal Cell, 1 µM) 55%. Regarding “CTTTGACATTCCATCTC (sugars l2 d11 l4, PS)”, the target mRNA inhibition runs as follows: (Human Neuronal Cell, 0.2 µM) 52%; (Human Neuronal Cell, 1 µM) 59%. In the case of “CTTTTAACCAGAGTGGC (sugars l4 d11 l2, PS)”, the target mRNA inhibition (Human Neuronal Cell, 7.5 µM) is 62%.

Take “CTTTTAACCAGAGTGGCA (sugars l1 d14 l3, PS)”: where the note is “Human Neuronal Cell, 7.5 µM”, the target mRNA inhibition is 61%.

Take “CTTTTAACCAGAGTGGCATC (sugars l2 d16 l2, PS)”: the target mRNA inhibition (Human Neuronal Cell, 7.5 µM) worked out at 57%. Take “GAAAATCTCAACTACCATT (sugars l5 d12 l2, PS)”: the target mRNA inhibition (Human Neuronal Cell, 7.5 µM) is 60%. Turning to GACTACATTCTCAATA (sugars l3 d10 l3, PS), the target mRNA inhibition was 30% (Human Neuronal Cell, 0.2 µM) and 50% (Human Neuronal Cell, 1 µM). Regarding “GATCATTCTCAACAATT (sugars l5 d6 l1 d1 l4, PS)”, the target mRNA inhibition (Human Neuronal Cell, 7.5 µM) stood at 0%. Same read-out and setting: the result for “GATCATTCTCAACAATTAA (sugars lldllddddddddlldlll, PS)” reads 28%; that for “GCAACATTATTAACCACCT (sugars ldddddddddddlldldll, PS)”, 39%. For the sequence “GCAACATTATTAACCACCT (sugars ldlddlddddddlldddll, PS)”, the target mRNA inhibition (Human Neuronal Cell, 7.5 µM) turned out to be 44%.

For the sequence “GCACATTCTTTCTATAC (sugars l1 d1 l3 d8 l4, PS)”, the target mRNA inhibition (Human Neuronal Cell, 7.5 µM) is 59%.

Turning to “GCACATTCTTTCTATAC (sugars l3 d12 l2, PS)”, the target mRNA inhibition (Human Neuronal Cell, 7.5 µM) came out at 52%. Still for that read-out and setting: as for “GCACATTCTTTCTATAC (sugars ldldlddddddlddlll, PS)”, the figure is 49%; as for “GCACATTCTTTCTATACC (sugars l1 d1 l2 d11 l3, PS)”, 64%; as for “GCACATTCTTTCTATACC (sugars l1 d3 l1 d11 l2, PS)”, 54%. For the sequence “GCATTCAACCCTAATCA (sugars l3 d12 l2, PS)”, the target mRNA inhibition (Human Neuronal Cell, 0.2 µM) came to 39% and the target mRNA inhibition (Human Neuronal Cell, 1 µM) was 50%.

In the case of GCTAATTTAAATTTCC (sugars l4 d10 l2, PS), the target mRNA inhibition was 49% (Human Neuronal Cell, 0.2 µM) and 67% (Human Neuronal Cell, 1 µM). Taken in the same sequence, the figures for GCTCCATATTTAAATC (sugars l4 d10 l2, PS) were 7% and 20%.

For GCTTCATATTTCTCCA (sugars l2 d11 l3, PS), the target mRNA inhibition (Human Neuronal Cell, 1 µM) was determined as 63%. Consider GCTTTTAACCAGAGT (sugars l3 d9 l3, PS), for which the target mRNA inhibition (Human Neuronal Cell, 7.5 µM) is 73%. On the same count and under the same terms, as for “GCTTTTAACCAGAGTGGCA (sugars l1 d16 l2, PS)”, the figure is 46%; as for “GCTTTTAACCAGAGTGGCAT (sugars l1 d16 l3, PS)”, 53%. For GTTAACCTATATTTCA (sugars l4 d10 l2, PS), the target mRNA inhibition came to 15% (Human Neuronal Cell, 0.2 µM) and 6% (Human Neuronal Cell, 1 µM). For “GTTACATATTCTTTCAC (sugars l3 d11 l3, PS)”, in that order: 53% and 67%. For the sequence “GTTACCTACATCTCATA (sugars l2 d13 l2, PS)”, the target mRNA inhibition reads like this: (Human Neuronal Cell, 0.2 µM) -14%; (Human Neuronal Cell, 1 µM) 11%; (Human Neuronal Cell, 5 µM) 13%; under setting [1], 81%. On to “GTTCTACTATACTTTCCT (sugars l1 d14 l3, PS)”, for which the target mRNA inhibition (Human Neuronal Cell, 7.5 µM) turned out to be 46%. As to “GTTCTCTTTATTTCTTCT (sugars l2 d12 l4, PS)”, the target mRNA inhibition (Human Neuronal Cell, 0.2 µM) amounted to 31% and the target mRNA inhibition (Human Neuronal Cell, 1 µM) is 42%. As for “GTTTATACCCTTTCCAAT (sugars l1 d1 l1 d13 l2, PS)”, the target mRNA inhibition (Human Neuronal Cell, 7.5 µM) is 56%. On the same count and under the same terms, as for “GTTTATACCCTTTCCAAT (sugars ldldldddddddllddll, PS)”, the figure is 39%; as for “GTTTCCATCTACTATTAA (sugars ldddldddddddldllll, PS)”, 62%; as for “GTTTCCATCTACTATTAA (sugars ldldllddddddddddll, PS)”, 58%. Same read-out and setting: as for “GTTTCCATCTACTATTAA (sugars ldlllddddddddlddll, PS)”, the figure is 49%; as for “GTTTCCATCTACTATTAA (sugars llddldddddddldldll, PS)”, 31%; as for “GTTTCCATCTACTATTAAT (sugars ldldddddddddddldlll, PS)”, 44%.

“GTTTCCATCTACTATTAAT (sugars llldlddddddddldddll, PS)”: under “Human Neuronal Cell, 7.5 µM”, the target mRNA inhibition worked out at 50%. Regarding “TAAAATTATTTATACACCA (sugars ldddllddddddllddlll, PS)”, the target mRNA inhibition (Human Neuronal Cell, 7.5 µM) amounted to 55%. With “TAAAATTATTTATACACCA (sugars llldllddddddlllldll, PS)”, the target mRNA inhibition (Human Neuronal Cell, 7.5 µM) is 7%. Still for that read-out and setting: as for “TAAAATTATTTATACACCAT (sugars l7 d6 l1 d3 l3, PS)”, the figure is 51%; as for “TAAAATTATTTATACACCAT (sugars ldldllddddddddldllll, PS)”, 45%; as for “TAAAATTATTTATACACCAT (sugars lldlllldddddddllldll, PS)”, 26%. In the case of TAAAGATCCCATCACT (sugars l4 d10 l2, PS), the target mRNA inhibition (Human Neuronal Cell, 0.2 µM) came to 31% and the target mRNA inhibition (Human Neuronal Cell, 1 µM) came to 50%. Turning to TACACATCTTGTATAC (sugars l3 d10 l3, PS), the target mRNA inhibition is 14% (Human Neuronal Cell, 0.2 µM) and 36% (Human Neuronal Cell, 1 µM). Regarding “TACACTTAATTATACTTCCA (sugars l1 d2 l1 d13 l3, PS)”, for the setting “Human Neuronal Cell, 7.5 µM”, the target mRNA inhibition turned out to be 54%.

For the sequence “TACACTTAATTATACTTCCA (sugars lddldldddddddlldddll, PS)”, under “Human Neuronal Cell, 7.5 µM”, the target mRNA inhibition was 55%. Same read-out and setting: the result for “TACACTTAATTATACTTCCA (sugars ldldddlddddddddlddll, PS)” reads 58%. As for TACATCTCATACTTGC (sugars l2 d12 l2, PS), the target mRNA inhibition by setting is: (Human Neuronal Cell, 0.2 µM) 0%; (Human Neuronal Cell, 1 µM) -10%; (Human Neuronal Cell, 5 µM) 8%; under setting [1], 80.8%.

Consider “TACATCTCATACTTGCT (sugars l4 d11 l2, PS)”, for which the target mRNA inhibition under setting [1] turned out to be 95.3%. On to “TACATTATTATTTAACC (sugars l4 d11 l2, PS)”, for which the target mRNA inhibition is 11% (Human Neuronal Cell, 0.2 µM) and 6% (Human Neuronal Cell, 1 µM).

As for “TACCTACATCTCATACT (sugars l4 d11 l2, PS)”, the target mRNA inhibition is -53% (Human Neuronal Cell, 0.2 µM); -18% (Human Neuronal Cell, 1 µM); 11% (Human Neuronal Cell, 5 µM); 94.4% under setting [1]. Consider TACTATCTTTGACATT (sugars l4 d10 l2, PS), for which the target mRNA inhibition turned out to be 49% (Human Neuronal Cell, 0.2 µM) and 58% (Human Neuronal Cell, 1 µM). Consider “TACTCTGCAATACACCA (sugars ldddlddddddddldll, PS)”, for which the target mRNA inhibition (Human Neuronal Cell, 7.5 µM) stood at 68%. For the sequence TAGACTAATCCTCTTA (sugars l4 d10 l2, PS), the target mRNA inhibition reads like this: (Human Neuronal Cell, 0.2 µM) 48%; (Human Neuronal Cell, 1 µM) 56%. Take TAGCCTACTTTAATAT (sugars l4 d10 l2, PS): the target mRNA inhibition runs as follows: (Human Neuronal Cell, 0.2 µM) 25%; (Human Neuronal Cell, 1 µM) 11%. Taken in the same sequence, the figures for TATAAGCTTACCTCAT (sugars l3 d10 l3, PS) were 50% and 66%.
